Measurements from ChEMBL document CHEMBL3399954, “Design and synthesis of new tricyclic indoles as potent modulators of the S1P1 receptor” (Bioorg Med Chem Lett, 2015).

Experiments:
[1] = Half life in Sprague-Dawley rat at 1 mg/kg, iv; assay type: ADME, organism-based; set-up: dose 1 mg/kg, route intravenous; conditions: in vivo
[2] = Half life in human liver microsomes; assay type: ADME
[3] = AUClast in Sprague-Dawley rat at 1 mg/kg, iv and 1 mg/kg, po; assay type: ADME, organism-based; conditions: plasma
[4] = Clearance in Sprague-Dawley rat at 1 mg/kg, iv and 1 mg/kg, po; assay type: ADME, organism-based; conditions: in vivo
[5] = Volume of distribution at steady state in Sprague-Dawley rat at 1 mg/kg, iv and 1 mg/kg, po; assay type: ADME, organism-based; conditions: in vivo, read-out: Vdss
[6] = Half life in mouse liver microsomes; assay type: ADME
[7] = Oral bioavailability in Sprague-Dawley rat at 1 mg/kg; assay type: ADME, organism-based; conditions: in vivo
[8] = Half life in rat liver microsomes; assay type: ADME

half-life [1]: 9.49 h
half-life [2]: > 1 h
AUC(0-t) [3]: 1320 ng·h/mL
clearance [4]: 10.7 mL/min/kg
Vd [5]: 6.71 L/kg
half-life [6]: > 1 h
bioavailability [7]: < 2%
half-life [8]: > 1 h
Compound: O=C(O)CC1NCCc2c1[nH]c1ccc(OCc3ccc(C4CCCC4)c(C(F)(F)F)c3)cc21 (single isomer, unassigned)
